Results taken from ChEMBL document CHEMBL1155560, “Two complex proline esters from the sea hare Stylocheilus longicauda” (J Nat Prod, 2000).
In brackets after ≈: the same amount, converted by molar mass.

Legend:
Assay type in all cases: functional, cell-based
A549 = test: Cytotoxicity against human A549 cells
[1] = Cytotoxicity against human HTB38 cells; conditions: HTB-38
P388 = test: Cytotoxicity against mouse P388 cells

Molecule `C=C[C@](C)(CCC=C(C)C)c1ccc2c3c(c[nH]c13)C[C@@H](COC(C)=O)NC(=O)[C@H](C(C)C)N2C` [LYNGBYATOXIN A ACETATE] has an IC50 (A549) of 0.05 µg/mL, an IC50 [1] of 0.05 µg/mL and an IC50 (P388) of 0.05 µg/mL.

With `C=C(C/C=C/C=C/Cl)CC(OC(=O)[C@@H]1CCC(=O)N1C)C(C)(C)C` (stereo partly specified) the IC50 (A549) was 2.5 µg/mL (≈ 7.06 µM), the IC50 [1] was 2.5 µg/mL (≈ 7.06 µM) and the IC50 (P388) was 2.5 µg/mL (≈ 7.06 µM).
